Source: US8435538B2, “Anti-atheroma vaccine” (Thrombosis Research Institute, priority 2008, dated 2013)
Where “and” joins values, the source holds several entries; their conditions need not be identical. Equal values may be shown once. Ends that are not written are not given here.

Experiments:
[1] = tested on: macrophages (CD68+ cells); test: Infiltration of macrophages into atherosclerotic lesions, anti-CD68 staining; format: in vivo; details: compared with mice immunized with either HSP60 or apoB1 alone; FIG. 6
Source text: Infiltration of macrophages into atherosclerotic lesions in the Apob^tm2SgyLdlr^tm1Her/J mice were quantified by staining with anti-CD68. Sections of the tissue sample (5 μm thick) were stained with hematoxylin-eosin (H.E.) and examined under a light microscope. Macrophage levels were compared in a sample obtained from mice immunized with adjuvant only (control), mice immunized with ApoB only, mice immunized with hHSP60 only and mice immunized with the bi-specific ApoB1+hHSP60 immunogen.

[2] = tested on: Apob^tm2SgyLdlr^tm1Her/J mice; test: Histological analysis of atherosclerotic lesions in the aortic sinus of immunized mice; format: in vivo
Source text: LDL receptor-deficient mice expressing ApoB-100 were immunized with a combination of two peptides derived from ApoB1 ([…], SEQ ID NO:25) and hHSP60 (AELKKQSKPVT, SEQ ID NO:26).
(§1) Apob^tm2SgyLdlr^tm1Her/J mice were immunized with combinations of ApoB and hHSP epitopes conjugated to keyhole limpet hemocyanin (KLH) as a carrier protein. The peptides were given either in combination, as a bi-specific immunogen, or in a single form, together with complete/incomplete Freund's adjuvant. Mice were fed with high-fat diet for 7 weeks then sacrificed. Peptide-specific antibody responses were detected in the sera by ELISA.
The lesions were 14.66% smaller following immunization with ApoB1 peptide alone (FIG. 5B), and 21.15% smaller after immunization with hHSP60 peptide alone (FIG. 5C) than in control mice.

[3] = tested on: Apob^tm2Sgy Ldlr^tm1Her/J KO-mice; test: RIMMS immunization, serum IgG titre by ELISA, KO-mouse model; format: in vivo; details: titre = highest serum dilution giving OD (450 nm) ≧1
Experimental: The ability of the recombinant immunogens to generate an immune response in BALB/C mice models, C57/BL6 mice models and Apob^tm2Sgy Ldlr^tm1Her/J KO-mice models. Mice were immunized using a repetitive, multiple site immunization strategy (RIMMS). Groups of 10 of 6-8-week-old BALB/c mice were inoculated with 4 μg of recombinant immunogen mixed with Freund's adjuvant 5 times respectively. The immunization was carried out subcutaneously into 8 sites on days 0, 2, 5, 7 and 9. On day 12 and 21 blood sample will be collected to test the antibody response. […]
Serum samples of immunized and naïve mice were tested for IgG antibodies using OD values at a dilution of 1:100 (or 200) on ELISA plates coated with antigens. Cut-off value for positivity was calculated as mean OD of naïve mouse sera+3×SD. Serum samples showing higher OD on antigen than on control antigen are considered positive, the other is determined by the highest dilution of serum giving an OD reading (at 450 nm)≧1. In this regard, titre can be assessed as non-immunoreactivity (<200), low immunoreactivity (200≦titre<800), good immunoreactivity (800≦titre<3200) and very good immunoreactivity ((titre 3200)

[4] = tested on: hHSP60 peptide; test: Peptide-specific antibody response in sera by ELISA after immunization with KLH conjugates, antigen hHSP60 peptide; format: in vivo, mice
Source text: as §1

[5] = tested on: ApoB1 peptide; test: Peptide-specific antibody response in sera by ELISA after immunization with KLH conjugates, antigen ApoB1 peptide; format: in vivo, mice
Source text: as §1

Substance: ApoB1 + hHSP60-KLH: combination of ApoB1 and hHSP60 peptides conjugated to KLH, bi-specific immunogen (chain 1 IEIGLEGKGFEPTLEALFGK; chain 2 AELKKQSKPVT; also: peptides conjugated to KLH; listed as Homo sapiens)
- number of macrophages (CD68+ cells) found within lesions of atherosclerosis [1]: fewer
- protection from progression of atherosclerotic lesion ([2]; LDL receptor-deficient mice expressing ApoB-100): synergistic protection
- atherosclerotic lesions in the aortic sinus smaller in size than in control mice ([2]; vs adjuvant control, high-fat diet for 7 weeks): 41.34%
- Immune response on KO- mouse model [3]: Very Good (very good immunoreactivity ((titre 3200))
- OD at 1:100 serum dilution, ELISA antigen hHSP60 peptide, Mean ([4]; Week 8, group mean): 1.366
- OD at 1:100 serum dilution, ELISA antigen hHSP60 peptide ([4]; Week 8, individual mouse): 1.368 and 1.405 and 1.556 and 1.282 and 1.215 and 1.338 and 1.396
- OD at 1:100 serum dilution, ELISA antigen ApoB1 peptide, Mean ([5]; Week 8, group mean): 1.333
- OD at 1:100 serum dilution, ELISA antigen ApoB1 peptide ([5]; Week 8, individual mouse): 1.227 and 1.546 and 1.449 and 1.437 and 1.142 and 1.229 and 1.303
